Experimental data as given in PubChem BioAssay (NCI).
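Assay format: 96-well plates, 48-hour exposure. Definition used: TGI = concentration required for complete inhibition of growth.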

Tests used:
Test in all cases: DTP human tumour cell line panel, 48 h
NCI-H226 lung = test system: NCI-H226 lung
EKVX NSCLC = test system: EKVX NSCLC
OVCAR-4 ovarian = test system: OVCAR-4 ovarian
K-562 leukemia = test system: K-562 leukemia
OVCAR-3 ovarian = test system: OVCAR-3 ovarian
UACC-257 melanoma = test system: UACC-257 melanoma
RXF 393 renal = test system: RXF 393 renal
NCI-H460 lung = test system: NCI-H460 lung
TK-10 renal = test system: TK-10 renal
SF-539 CNS = test system: SF-539 CNS
HCT-116 colon = test system: HCT-116 colon
OVCAR-8 ovarian = test system: OVCAR-8 ovarian
SNB-78 CNS = test system: SNB-78 CNS
RPMI-8226 leukemia = test system: RPMI-8226 leukemia
SK-MEL-28 melanoma = test system: SK-MEL-28 melanoma
OVCAR-5 ovarian = test system: OVCAR-5 ovarian
IGROV1 ovarian = test system: IGROV1 ovarian
UACC-62 melanoma = test system: UACC-62 melanoma
HCT-15 colon = test system: HCT-15 colon
786-0 renal = test system: 786-0 renal
U251 CNS = test system: U251 CNS
CCRF-CEM leukemia = test system: CCRF-CEM leukemia
M19-MEL melanoma = test system: M19-MEL melanoma
ACHN renal = test system: ACHN renal
A549 NSCLC = test system: A549 NSCLC
DMS 114 small cell lung = test system: DMS 114 small cell lung
MOLT-4 leukemia = test system: MOLT-4 leukemia
SK-MEL-2 melanoma = test system: SK-MEL-2 melanoma
SW-620 colon = test system: SW-620 colon
HT29 colon = test system: HT29 colon
HOP-62 NSCLC = test system: HOP-62 NSCLC
DMS 273 small cell lung = test system: DMS 273 small cell lung
KM20L2 colon = test system: KM20L2 colon
A498 renal = test system: A498 renal
SK-MEL-5 melanoma = test system: SK-MEL-5 melanoma
M14 melanoma = test system: M14 melanoma
CAKI-1 renal = test system: CAKI-1 renal
XF 498 CNS = test system: XF 498 CNS
NCI-H23 lung = test system: NCI-H23 lung
UO-31 renal = test system: UO-31 renal
HL-60(TB) leukemia = test system: HL-60(TB) leukemia
SK-OV-3 ovarian = test system: SK-OV-3 ovarian
SNB-75 CNS = test system: SNB-75 CNS
KM12 colon = test system: KM12 colon
SF-295 CNS = test system: SF-295 CNS
DLD-1 colon = test system: DLD-1 colon
MALME-3M melanoma = test system: MALME-3M melanoma
HCC-2998 colon = test system: HCC-2998 colon
COLO 205 colon = test system: COLO 205 colon
HOP-92 NSCLC = test system: HOP-92 NSCLC
LOX IMVI melanoma = test system: LOX IMVI melanoma
SN12C renal = test system: SN12C renal
LXFL 529 NSCLC = test system: LXFL 529 NSCLC
NCI-H522 lung = test system: NCI-H522 lung
SNB-19 CNS = test system: SNB-19 CNS
SF-268 CNS = test system: SF-268 CNS

SMILES: CC(C)C1CC2C(=O)N(c3ccccc3)C(=O)C2c2[nH]c3ccccc3c21 (stereo not drawn)
- TGI (NCI-H226 lung): 36.8 µM
- TGI (EKVX NSCLC): > 100 µM
- TGI (OVCAR-4 ovarian): 5.63 µM
- TGI (K-562 leukemia): 18.7 µM
- TGI (OVCAR-3 ovarian): 38 µM
- TGI (UACC-257 melanoma): > 100 µM
- TGI (RXF 393 renal): 57.4 µM
- TGI (NCI-H460 lung): > 100 µM
- TGI (TK-10 renal): 97.4 µM
- TGI (SF-539 CNS): 67.5 µM
- TGI (HCT-116 colon): 14.8 µM
- TGI (OVCAR-8 ovarian): 40.1 µM
- TGI (SNB-78 CNS): 77.3 µM
- TGI (RPMI-8226 leukemia): > 100 µM
- TGI (SK-MEL-28 melanoma): > 100 µM
- TGI (OVCAR-5 ovarian): > 100 µM
- TGI (IGROV1 ovarian): > 100 µM
- TGI (UACC-62 melanoma): > 100 µM
- TGI (HCT-15 colon): > 100 µM
- TGI (786-0 renal): > 100 µM
- TGI (U251 CNS): 41.1 µM
- TGI (CCRF-CEM leukemia): 54.3 µM
- TGI (M19-MEL melanoma): > 100 µM
- TGI (ACHN renal): 38.3 µM
- TGI (A549 NSCLC): > 100 µM
- TGI (DMS 114 small cell lung): > 100 µM
- TGI (MOLT-4 leukemia): > 100 µM
- TGI (SK-MEL-2 melanoma): > 100 µM
- TGI (SW-620 colon): > 100 µM
- TGI (HT29 colon): > 100 µM
- TGI (HOP-62 NSCLC): > 100 µM
- TGI (DMS 273 small cell lung): 29.2 µM
- TGI (KM20L2 colon): > 100 µM
- TGI (A498 renal): > 100 µM
- TGI (SK-MEL-5 melanoma): > 100 µM
- TGI (M14 melanoma): > 100 µM
- TGI (CAKI-1 renal): > 100 µM
- TGI (XF 498 CNS): 54.9 µM
- TGI (NCI-H23 lung): 84 µM
- TGI (UO-31 renal): 80.4 µM
- TGI (HL-60(TB) leukemia): 93.9 µM
- TGI (SK-OV-3 ovarian): 79.4 µM
- TGI (SNB-75 CNS): 23.5 µM
- TGI (KM12 colon): > 100 µM
- TGI (SF-295 CNS): 65.5 µM
- TGI (DLD-1 colon): > 100 µM
- TGI (MALME-3M melanoma): > 100 µM
- TGI (HCC-2998 colon): > 100 µM

SMILES: O=C(c1ccccc1)c1oc2ccc(Br)cc2c1-c1cnn(-c2ccccc2)c1
- TGI (OVCAR-4 ovarian): > 100 µM
- TGI (K-562 leukemia): > 100 µM
- TGI (OVCAR-3 ovarian): > 100 µM
- TGI (UACC-257 melanoma): > 100 µM
- TGI (RXF 393 renal): > 100 µM
- TGI (NCI-H460 lung): > 100 µM
- TGI (COLO 205 colon): > 100 µM
- TGI (SNB-78 CNS): > 100 µM
- TGI (RPMI-8226 leukemia): > 100 µM
- TGI (SK-MEL-28 melanoma): > 100 µM
- TGI (HOP-92 NSCLC): > 100 µM
- TGI (OVCAR-5 ovarian): > 100 µM
- TGI (IGROV1 ovarian): > 100 µM
- TGI (UACC-62 melanoma): > 100 µM
- TGI (HCT-15 colon): > 100 µM
- TGI (786-0 renal): > 100 µM
- TGI (CCRF-CEM leukemia): > 100 µM
- TGI (M19-MEL melanoma): > 100 µM
- TGI (ACHN renal): > 100 µM
- TGI (DMS 114 small cell lung): > 100 µM
- TGI (MOLT-4 leukemia): > 100 µM
- TGI (LOX IMVI melanoma): > 100 µM
- TGI (SK-MEL-2 melanoma): > 100 µM
- TGI (HT29 colon): > 100 µM
- TGI (HOP-62 NSCLC): > 100 µM
- TGI (DMS 273 small cell lung): > 100 µM
- TGI (KM20L2 colon): > 100 µM
- TGI (SN12C renal): > 100 µM
- TGI (M14 melanoma): > 100 µM
- TGI (CAKI-1 renal): > 100 µM
- TGI (XF 498 CNS): > 100 µM
- TGI (LXFL 529 NSCLC): > 100 µM
- TGI (NCI-H522 lung): > 100 µM
- TGI (NCI-H23 lung): > 100 µM
- TGI (UO-31 renal): > 100 µM
- TGI (HL-60(TB) leukemia): > 100 µM
- TGI (SNB-19 CNS): > 100 µM
- TGI (SK-OV-3 ovarian): > 100 µM
- TGI (SNB-75 CNS): > 100 µM
- TGI (KM12 colon): > 100 µM
- TGI (SF-295 CNS): > 100 µM
- TGI (DLD-1 colon): > 100 µM
- TGI (MALME-3M melanoma): > 100 µM
- TGI (HCC-2998 colon): > 100 µM
- TGI (SF-268 CNS): > 100 µM
